Test results published in the NIST ThermoML archive (doi:10.1021/acs.jced.8b01027).

Key:
[1] = xn = mol fraction of the nth substance listed; details: Liquid, isochoric method, x1 = 0.1965
[2] = Liquid, Capillary tube (Ostwald / Ubbelohde) method

CCCCCCCC [octane] + O=C=O
mass density [kg/m3], [1]
Details	313.05 K	322.96 K	332.84 K
8000 kPa	740.9	–	–
9000 kPa	750.1	716.1	–
10000 kPa	758.3	724.1	–
11000 kPa	765.4	731.9	–
12000 kPa	771.9	739.1	–
13000 kPa	777.9	745.8	–
14000 kPa	783.5	752	–
15000 kPa	788.7	757.7	–
16000 kPa	793.6	763.1	732.9
17000 kPa	798.2	768.2	739.2
18000 kPa	802.7	772.9	745.1
19000 kPa	–	777.5	750.6
19170 kPa	807	–	–
20000 kPa	811.1	781.8	755.8
21000 kPa	815	786	–
21020 kPa	–	–	760.8
22000 kPa	818.7	789.9	–
22020 kPa	–	–	765.4
22960 kPa	–	793.6	–
22980 kPa	–	–	769.7
22990 kPa	822.2	–	–
23960 kPa	–	797.3	–
23990 kPa	–	–	773.9
24000 kPa	825.6	–	–
24550 kPa	827.5	–	–
24790 kPa	–	–	777.1

CCCCCCCCCCO [decan-1-ol]
[2]
Details	viscosity [mPa·s]
298.15 K, 2000 kPa	11.25
298.15 K, 3990 kPa	11.54
298.15 K, 6010 kPa	11.79
298.15 K, 8010 kPa	12.05
298.15 K, 10010 kPa	12.35
298.15 K, 13010 kPa	12.74
298.15 K, 16010 kPa	13.16
298.15 K, 19010 kPa	13.57
298.15 K, 22010 kPa	14.01
298.15 K, 25000 kPa	14.46
298.15 K, 28000 kPa	14.89
298.15 K, 29990 kPa	15.19
303.15 K, 1990 kPa	8.895
303.15 K, 4000 kPa	9.117
303.15 K, 5980 kPa	9.337
303.15 K, 8010 kPa	9.562
303.15 K, 10020 kPa	9.784
303.15 K, 12980 kPa	10.11
303.15 K, 15970 kPa	10.44
303.15 K, 19020 kPa	10.78
303.15 K, 22000 kPa	11.11
303.15 K, 24980 kPa	11.44
303.15 K, 27980 kPa	11.77
303.15 K, 30010 kPa	12
313.15 K, 2030 kPa	6.219
313.15 K, 4020 kPa	6.374
313.15 K, 6000 kPa	6.526
313.15 K, 7980 kPa	6.68
313.15 K, 9980 kPa	6.835
313.15 K, 12990 kPa	7.068
313.15 K, 15990 kPa	7.299
313.15 K, 18990 kPa	7.532
313.15 K, 22010 kPa	7.766
313.15 K, 25020 kPa	7.999
313.15 K, 28020 kPa	8.231
313.15 K, 29980 kPa	8.382
323.15 K, 2000 kPa	4.735
323.15 K, 4010 kPa	4.857
323.15 K, 6010 kPa	4.97
323.15 K, 8010 kPa	5.091
323.15 K, 9990 kPa	5.202
323.15 K, 13010 kPa	5.369
323.15 K, 16010 kPa	5.54
323.15 K, 19020 kPa	5.726
323.15 K, 22020 kPa	5.892
323.15 K, 25010 kPa	6.072
323.15 K, 28000 kPa	6.247
323.15 K, 30010 kPa	6.373
